How the values were obtained:
MAPK14 (human) [1] = molecular target: MAPK14 (human) (UniProt Q16539); assay: Inhibition of MAPK14 Kinase Activity by Fluorescence Anisotropy Kinase Binding Assay
MAPK14 (human) [2] = molecular target: MAPK14 (human) (UniProt Q16539); assay: Inhibition of MAPK14 Kinase Activity

Chain of MAPK14 (human) (Q16539 whole entry, looked up): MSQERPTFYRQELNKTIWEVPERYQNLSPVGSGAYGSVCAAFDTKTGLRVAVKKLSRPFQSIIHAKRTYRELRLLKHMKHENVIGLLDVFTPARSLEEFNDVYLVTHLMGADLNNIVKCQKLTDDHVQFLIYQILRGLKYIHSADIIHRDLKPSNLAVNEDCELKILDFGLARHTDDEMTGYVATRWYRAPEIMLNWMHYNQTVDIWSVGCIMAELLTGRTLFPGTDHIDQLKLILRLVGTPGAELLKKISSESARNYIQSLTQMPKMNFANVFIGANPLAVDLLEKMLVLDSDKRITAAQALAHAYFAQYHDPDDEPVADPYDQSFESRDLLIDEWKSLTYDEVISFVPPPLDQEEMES

Row | SMILES | IC50 (MAPK14 (human) [1]) [nM] | IC50 (MAPK14 (human) [2]) [nM]
1 | O=c1ccc2c(-c3ccc(F)cc3Cl)nc(NC(CO)CO)nc2n1-c1ccc(F)cc1F | < 1000 | –
2 | O=c1ccc2c(-c3ccccc3F)nc(NC(CO)CO)nc2n1-c1c(F)cc(F)cc1F | < 1000 | < 10000
3 | O=c1ccc2c(-c3ccc(F)cc3F)nc(NC(CO)CO)nc2n1-c1cccc(F)c1F | < 1000 | –
4 | O=c1ccc2c(-c3ccc(F)cc3F)nc(NC(CO)CO)nc2n1-c1ccc(F)cc1F | < 1000 | < 10000

The next lines start with the values.

Row | IC50 (MAPK14 (human) [1]) [nM] | IC50 (MAPK14 (human) [2]) [nM] | SMILES
5 | < 1000 | < 10000 | O=c1ccc2c(-c3ccc(F)cc3F)nc(NC(CO)CO)nc2n1-c1c(F)cc(F)cc1F
6 | < 1000 | – | C[C@@H](CO)Nc1nc(-c2ccc(F)cc2F)c2ccc(=O)n(-c3ccc(F)cc3)c2n1
7 | < 1000 | – | O=c1ccc2c(-c3ccc(F)cc3)nc(NC(CO)CO)nc2n1-c1c(F)cc(F)cc1F

Reference: the Kinase Knowledgebase extract (Sharma et al. 2016)
